Values quoted from earlier work in patent US8278451B2, “Pseudoazulenyl nitrones” (The Florida International University Board of Trustees, priority 2006, dated 2012).

Tests used:
[1] = aqueous solution at pH 7 and 20° C.
[2] = system: age-related changes in cognitive performance; settings: aged rats, chronic treatment
[3] = system: human diploid fibroblast cells; settings: human diploid fibroblast cells in culture
lifespan = settings: aged animal model, daily intraperitoneal injection, male and female
[4] = system: LPS-induced organ dysfunction and cytokine secretion; settings: rats, LPS administered

| one-electron oxidative potential (vs. NHE) [1] [V] | Structure (SMILES) | age-related changes in cognitive performance [2] | onset of senescence [3] | lifespan (lifespan) | LPS-induced leukopenia [4] | LPS-induced pulmonary edema [4] | LPS-induced thrombocytopenia [4] | organ dysfunction and cytokine secretion induced by LPS [4] |
| --- | --- | --- | --- | --- | --- | --- | --- | --- |
| 0.48 | Cc1c(C)c2c(c(C)c1O)CC[C@@](C)(CCC[C@H](C)CCC[C@H](C)CCCC(C)C)O2 [vitamin E, alpha-tocopherol] | benefit (i.e., improve) age-related changes in cognitive performance |  |  |  |  |  |  |
|  | CC(C)(C)[N+]([O-])=Cc1ccccc1 [PBN, alpha-phenyl-N-tert-butylnitrone] | benefit (i.e., improve) age-related changes in cognitive performance | effectively delayed the onset of senescence | remarkable extension of the lifespan |  |  |  |  |
|  | CC1(C)Cc2ccccc2C=[N+]1[O-] [MDL 101,002] |  |  |  | failed to prevent leukopenia | prevented pulmonary edema | partially reduced thrombocytopenia | reduces organ dysfunction and cytokine secretion |
